These results are taken from the supplement of paper PMC11208160.
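Note: IS621 recombinase and bridge RNA in Escherichia coli cells.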

This data set in a line: recombinant barcode read abundance after kanamycin selection (control-corrected) (log10(CPM+1)); higher = more efficient recombination; sequences stand for … in AGTGCAGAGAAAATCGGCCAGTTTTCTCTGCCTGCAGTCCGCATGCCGT…AGATTTATGCAGCGGACTGCCTTTCTCCCAAAGTGATAAACCGGACAGTATCATGGACCGGTTTTCCCGGTAATCCGTATTTGCAAGGTTGGTTTCACT; site = the 11-nt target. The method, boiled down: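 IS621 bridge RNA target-binding loops were paired with targets in a pooled library tested in E. coli. After co-electroporation with a donor plasmid, cells were plated in two replicates on chloramphenicol/ampicillin LB agar (control) and on chloramphenicol/ampicillin/kanamycin carrying 0.1 mM IPTG. Barcodes at recombinant junctions were counted as counts per million, averaged and control-corrected to give recombination efficiency. Values are log10(CPM+1).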
In the case of “CGGAATGCTTGGGTTCTAACCTGTTGCCT (site CGAAATGCTAG)”, the “recombinant barcode read abundance (log10)” value was determined as 0.198.

With “CGGAATGCTTGGGTTCTAACCTGTTGCCT (site CGCAATGCTAG)”, the “recombinant barcode read abundance (log10)” value was 0.0762.

For the sequence “CGGAATGCTTGGGTTCTAACCTGTTGCCT (site CGGAATGCTAG)”, the “recombinant barcode read abundance (log10)” value came to 1.38.

Regarding “CGGAATGCTTGGGTTCTAACCTGTTGCCT (site CGTAATGCTAG)”, the “recombinant barcode read abundance (log10)” value came out at 0.0616.

“CGGACGACTTGGGTTCTAACCTGTTGCCT (site CGGACGACTAG)”: the “recombinant barcode read abundance (log10)” value turned out to be 0.963.

Regarding “CGGACGACTTGGGTTCTAACCTGTTGCCT (site CGGACGCCTAG)”, the “recombinant barcode read abundance (log10)” value is 0.0677.

As to “CGGACGACTTGGGTTCTAACCTGTTGCCT (site CGGACGGCTAG)”, the “recombinant barcode read abundance (log10)” value stood at 0.0816.

For “CGGACGACTTGGGTTCTAACCTGTTGCCT (site CGGACGTCTAG)”, the “recombinant barcode read abundance (log10)” value was 0.111.

For the sequence “CGGAGCCCTTGGGTTCTAACCTGTTGCGG (site AGGAGCCCTTC)”, the “recombinant barcode read abundance (log10)” value came to 0.0728.

Take “CGGAGCCCTTGGGTTCTAACCTGTTGCGG (site CGGAGCCCTCC)”: the “recombinant barcode read abundance (log10)” value was 1.82.

“CGGATCGCTTGGGTTCTAACCTGTTGCCT (site CGGATAGCTAG)”: the “recombinant barcode read abundance (log10)” value was 0.079.

Turning to “CGGATCGCTTGGGTTCTAACCTGTTGCCT (site CGGATCGCTAG)”, the “recombinant barcode read abundance (log10)” value came out at 1.76.

As to “CGGATCGCTTGGGTTCTAACCTGTTGCCT (site CGGATGGCTAG)”, the “recombinant barcode read abundance (log10)” value was 0.153.

On to “CGGATCGCTTGGGTTCTAACCTGTTGCCT (site CGGATTGCTAG)”, for which the “recombinant barcode read abundance (log10)” value amounted to 0.271.

Take “CGGCATACTTGGGTTCTAACCTGTTGCCT (site CAGCATACTAG)”: the “recombinant barcode read abundance (log10)” value amounted to 0.0864.

With “CGGCATACTTGGGTTCTAACCTGTTGCCT (site CCGCATACTAG)”, the “recombinant barcode read abundance (log10)” value is 0.0245.

As to “CGGCATACTTGGGTTCTAACCTGTTGCCT (site CGGCATACTAG)”, the “recombinant barcode read abundance (log10)” value turned out to be 0.66.

Turning to “CGGCATACTTGGGTTCTAACCTGTTGCCT (site CTGCATACTAG)”, the “recombinant barcode read abundance (log10)” value worked out at 0.

As to “CGGCCACCTTGGGTTCTAACCTGTTGCCT (site CGGCCACCTAG)”, the “recombinant barcode read abundance (log10)” value turned out to be 2.02.

Take “CGGCCACCTTGGGTTCTAACCTGTTGCCT (site TGGCCACCTAG)”: the “recombinant barcode read abundance (log10)” value stood at 0.0718.

For the sequence “CGGCCTACTTGGGTTCTAACCTGTTGCTT (site CGGCCTACTAA)”, the “recombinant barcode read abundance (log10)” value was found to be 0.659.

For the sequence “CGGCCTACTTGGGTTCTAACCTGTTGCTT (site CGGCTTCCTAA)”, the “recombinant barcode read abundance (log10)” value is 0.137.

With “CGGCGTCCTTGGGTTCTAACCTGTTGCCG (site CGGCGTCCTAG)”, the “recombinant barcode read abundance (log10)” value was found to be 0.498.

Turning to “CGGCGTCCTTGGGTTCTAACCTGTTGCCG (site CGGCGTCCTCG)”, the “recombinant barcode read abundance (log10)” value turned out to be 0.197.

Consider “CGGCTGTCTTGGGTTCTAACCTGTTGCCT (site CGGCTGTCTAG)”, for which the “recombinant barcode read abundance (log10)” value was 1.28.

Take “CGGCTGTCTTGGGTTCTAACCTGTTGCCT (site GTAGGAACTCA)”: the “recombinant barcode read abundance (log10)” value worked out at 0.0275.

On to “CGGCTTCCTTGGGTTCTAACCTGTTGCTT (site CGGCCTACTAA)”, for which the “recombinant barcode read abundance (log10)” value stood at 0.209.

As to “CGGCTTCCTTGGGTTCTAACCTGTTGCTT (site CGGCTTCCTAA)”, the “recombinant barcode read abundance (log10)” value stood at 0.104.

Consider “CGGGCCTCTTGGGTTCTAACCTGTTGCAC (site CGGGCCTCTGT)”, for which the “recombinant barcode read abundance (log10)” value stood at 3.19.

Regarding “CGGGCCTCTTGGGTTCTAACCTGTTGCAC (site CGGTCCTCTGC)”, the “recombinant barcode read abundance (log10)” value was 0.209.

Take “CGGGCCTCTTGGGTTCTAACCTGTTGCTC (site CGGGCCTCTAA)”: the “recombinant barcode read abundance (log10)” value is 0.752.

On to “CGGGCCTCTTGGGTTCTAACCTGTTGCTC (site CGGGCCTCTCA)”, for which the “recombinant barcode read abundance (log10)” value amounted to 0.0404.

Regarding “CGGGCCTCTTGGGTTCTAACCTGTTGCTC (site CGGGCCTCTGA)”, the “recombinant barcode read abundance (log10)” value is 1.23.

As for “CGGGCCTCTTGGGTTCTAACCTGTTGCTC (site CGGGCCTCTTA)”, the “recombinant barcode read abundance (log10)” value is 0.0944.

For the sequence “CGGTACCCTTGGGTTCTAACCTGTTGCGG (site CAGCACCCTCC)”, the “recombinant barcode read abundance (log10)” value came out at 0.64.

For the sequence “CGGTACCCTTGGGTTCTAACCTGTTGCGG (site CGGTACCCTCC)”, the “recombinant barcode read abundance (log10)” value stood at 3.11.

Consider “CGGTCCGCTTGGGTTCTAACCTGTTGCCT (site AGATCCGCTAG)”, for which the “recombinant barcode read abundance (log10)” value amounted to 0.103.

Turning to “CGGTCCGCTTGGGTTCTAACCTGTTGCCT (site CGGTCCGCTAG)”, the “recombinant barcode read abundance (log10)” value worked out at 1.52.

As to “CGGTCGCCTTGGGTTCTAACCTGTTGCAT (site CGGTCGCCTAT)”, the “recombinant barcode read abundance (log10)” value was found to be 0.839.

Regarding “CGGTCGCCTTGGGTTCTAACCTGTTGCAT (site CGGTTGCCTAC)”, the “recombinant barcode read abundance (log10)” value amounted to 0.153.

Turning to “CGTAAATCTTGGGTTCTAACCTGTTGCCT (site CGAAAATCTAG)”, the “recombinant barcode read abundance (log10)” value was 0.0185.

Consider “CGTAAATCTTGGGTTCTAACCTGTTGCCT (site CGCAAATCTAG)”, for which the “recombinant barcode read abundance (log10)” value was found to be 0.0232.

Regarding “CGTAAATCTTGGGTTCTAACCTGTTGCCT (site CGGAAATCTAG)”, the “recombinant barcode read abundance (log10)” value stood at 0.15.

Turning to “CGTAAATCTTGGGTTCTAACCTGTTGCCT (site CGTAAATCTAG)”, the “recombinant barcode read abundance (log10)” value was found to be 0.146.

With “CGTACCTCTTGGGTTCTAACCTGTTGCTA (site CGTACCTCTAA)”, the “recombinant barcode read abundance (log10)” value was 0.124.

Turning to “CGTACCTCTTGGGTTCTAACCTGTTGCTA (site CGTACCTCTCA)”, the “recombinant barcode read abundance (log10)” value came out at 0.123.

Consider “CGTACCTCTTGGGTTCTAACCTGTTGCTA (site CGTACCTCTGA)”, for which the “recombinant barcode read abundance (log10)” value was determined as 0.0598.

With “CGTACCTCTTGGGTTCTAACCTGTTGCTA (site CGTACCTCTTA)”, the “recombinant barcode read abundance (log10)” value stood at 0.166.

Regarding “CGTACCTCTTGGGTTCTAACCTGTTGCTT (site CGTACCTCTAA)”, the “recombinant barcode read abundance (log10)” value stood at 0.579.

With “CGTACCTCTTGGGTTCTAACCTGTTGCTT (site CGTACCTCTCA)”, the “recombinant barcode read abundance (log10)” value was 0.125.

Consider “CGTACCTCTTGGGTTCTAACCTGTTGCTT (site CGTACCTCTGA)”, for which the “recombinant barcode read abundance (log10)” value was 0.406.

For “CGTACCTCTTGGGTTCTAACCTGTTGCTT (site CGTACCTCTTA)”, the “recombinant barcode read abundance (log10)” value turned out to be 0.127.

On to “CGTACTACTTGGGTTCTAACCTGTTGCAC (site CGTACTACTGT)”, for which the “recombinant barcode read abundance (log10)” value was 0.0785.

As to “CGTACTACTTGGGTTCTAACCTGTTGCAC (site GGTACTACTAT)”, the “recombinant barcode read abundance (log10)” value stood at 0.128.

For “CGTCAACCTTGGGTTCTAACCTGTTGCCT (site CGTCAACCTAG)”, the “recombinant barcode read abundance (log10)” value amounted to 0.0446.

On to “CGTCAACCTTGGGTTCTAACCTGTTGCCT (site CGTCACCCTAG)”, for which the “recombinant barcode read abundance (log10)” value came out at 0.117.

On to “CGTCAACCTTGGGTTCTAACCTGTTGCCT (site CGTCAGCCTAG)”, for which the “recombinant barcode read abundance (log10)” value stood at 0.177.

Take “CGTCAACCTTGGGTTCTAACCTGTTGCCT (site CGTCATCCTAG)”: the “recombinant barcode read abundance (log10)” value is 0.115.

“CGTCACACTTGGGTTCTAACCTGTTGCCT (site CGACACACTAG)”: the “recombinant barcode read abundance (log10)” value came to 0.013.

On to “CGTCACACTTGGGTTCTAACCTGTTGCCT (site CGCCACACTAG)”, for which the “recombinant barcode read abundance (log10)” value is 0.107.

“CGTCACACTTGGGTTCTAACCTGTTGCCT (site CGGCACACTAG)”: the “recombinant barcode read abundance (log10)” value was 0.052.

Turning to “CGTCACACTTGGGTTCTAACCTGTTGCCT (site CGTCACACTAG)”, the “recombinant barcode read abundance (log10)” value turned out to be 0.013.

Regarding “CGTCCGACTTGGGTTCTAACCTGTTGCAT (site CGTACGACTAT)”, the “recombinant barcode read abundance (log10)” value came out at 0.0562.

With “CGTCCGACTTGGGTTCTAACCTGTTGCAT (site CGTCCGACTAT)”, the “recombinant barcode read abundance (log10)” value worked out at 0.113.

On to “CGTCCGACTTGGGTTCTAACCTGTTGCAT (site CGTGCGACTAT)”, for which the “recombinant barcode read abundance (log10)” value worked out at 0.0838.

Take “CGTCCGACTTGGGTTCTAACCTGTTGCAT (site CGTTCGACTAT)”: the “recombinant barcode read abundance (log10)” value was 0.

Regarding “CGTCGGGCTTGGGTTCTAACCTGTTGCAG (site CATCGGGCTCT)”, the “recombinant barcode read abundance (log10)” value is 0.367.

Turning to “CGTCGGGCTTGGGTTCTAACCTGTTGCAG (site CCTCGGGCTCT)”, the “recombinant barcode read abundance (log10)” value was found to be 0.107.

For the sequence “CGTCGGGCTTGGGTTCTAACCTGTTGCAG (site CGTCGGGCTCT)”, the “recombinant barcode read abundance (log10)” value came to 1.38.

As to “CGTCGGGCTTGGGTTCTAACCTGTTGCAG (site CTTCGGGCTCT)”, the “recombinant barcode read abundance (log10)” value stood at 0.258.

For the sequence “CGTCTACCTTGGGTTCTAACCTGTTGCCT (site AGTCTACCTAG)”, the “recombinant barcode read abundance (log10)” value worked out at 0.0669.

“CGTCTACCTTGGGTTCTAACCTGTTGCCT (site CGTCTACCTAG)”: the “recombinant barcode read abundance (log10)” value was determined as 0.333.

As for “CGTCTAGCTTGGGTTCTAACCTGTTGCCA (site CGTCTAGCTTG)”, the “recombinant barcode read abundance (log10)” value turned out to be 0.0938.

“CGTCTAGCTTGGGTTCTAACCTGTTGCCA (site CGTGGAGCTTG)”: the “recombinant barcode read abundance (log10)” value was 0.0343.

Take “CGTCTGCCTTGGGTTCTAACCTGTTGCCT (site AGTCTGCCTAG)”: the “recombinant barcode read abundance (log10)” value came to 0.0222.

As to “CGTCTGCCTTGGGTTCTAACCTGTTGCCT (site CGTCTGCCTAG)”, the “recombinant barcode read abundance (log10)” value came to 0.0327.

Take “CGTCTGCCTTGGGTTCTAACCTGTTGCCT (site GGTCTGCCTAG)”: the “recombinant barcode read abundance (log10)” value is 0.0804.
